US11208412B2 (DAEGU-GYEONGBUK MEDICAL INNOVATION FOUNDATION, priority 2017, dated 2021)

Experiments:
Test in all cases: Kinase selectivity, DiscoverX scanMAX Kinase assay panel (% control)
Type in all cases: binding
[1] = molecular target: T1, kinases of the scanMAX Kinase assay panel (Homo sapiens, UniProt Q13523); details: PRP4; 1 uM
T1 construct: purchased DiscoverX Co. (contract measurement) scanMAX Kinase assay panel
In short: (§1)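 A 1 uM DMSO solution of compound was applied across the panel kinases, and results were expressed as % control relative to DMSO (100%) and a positive control (0%).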

[2] = molecular target: T2, kinases of the scanMAX Kinase assay panel (Homo sapiens, UniProt Q96Q40); details: PFTAIRE2; 1 uM
T2 construct: purchased DiscoverX Co. (contract measurement) scanMAX Kinase assay panel
In short: as §1

[3] = molecular target: T3, kinases of the scanMAX Kinase assay panel (Homo sapiens, UniProt O43283); details: LZK; 1 uM
T3 construct: purchased DiscoverX Co. (contract measurement) scanMAX Kinase assay panel
T3 sequence (O43283 1-966): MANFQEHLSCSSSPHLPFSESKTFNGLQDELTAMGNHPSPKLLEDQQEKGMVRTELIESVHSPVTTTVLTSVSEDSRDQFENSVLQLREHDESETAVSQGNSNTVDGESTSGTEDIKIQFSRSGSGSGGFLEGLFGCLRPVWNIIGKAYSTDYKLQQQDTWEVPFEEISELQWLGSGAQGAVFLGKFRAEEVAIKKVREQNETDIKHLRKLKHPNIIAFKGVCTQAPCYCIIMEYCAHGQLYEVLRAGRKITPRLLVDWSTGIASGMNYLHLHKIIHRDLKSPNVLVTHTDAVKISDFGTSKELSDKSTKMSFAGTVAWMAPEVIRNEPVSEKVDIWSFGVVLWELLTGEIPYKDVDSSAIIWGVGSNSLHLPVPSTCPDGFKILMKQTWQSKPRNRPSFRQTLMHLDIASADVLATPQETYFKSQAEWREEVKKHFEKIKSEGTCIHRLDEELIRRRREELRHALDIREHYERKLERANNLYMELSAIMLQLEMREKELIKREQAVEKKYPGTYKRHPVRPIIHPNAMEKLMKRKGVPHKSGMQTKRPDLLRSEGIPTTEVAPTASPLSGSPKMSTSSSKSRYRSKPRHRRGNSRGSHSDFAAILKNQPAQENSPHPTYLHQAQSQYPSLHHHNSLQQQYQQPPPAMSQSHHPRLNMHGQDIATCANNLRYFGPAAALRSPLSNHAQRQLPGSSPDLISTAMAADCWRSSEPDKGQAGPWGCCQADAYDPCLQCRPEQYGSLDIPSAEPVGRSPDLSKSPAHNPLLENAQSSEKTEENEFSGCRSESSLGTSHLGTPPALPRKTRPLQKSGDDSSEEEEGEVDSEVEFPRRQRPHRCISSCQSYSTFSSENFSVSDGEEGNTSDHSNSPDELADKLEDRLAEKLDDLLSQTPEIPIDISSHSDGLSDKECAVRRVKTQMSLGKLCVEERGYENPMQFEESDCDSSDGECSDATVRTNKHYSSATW
In short: as §1

[4] = molecular target: T4, kinases of the scanMAX Kinase assay panel (Homo sapiens, UniProt Q9UEE5); details: DRAK1; 1 uM
T4 construct: purchased DiscoverX Co. (contract measurement) scanMAX Kinase assay panel
T4 sequence (Q9UEE5 1-414): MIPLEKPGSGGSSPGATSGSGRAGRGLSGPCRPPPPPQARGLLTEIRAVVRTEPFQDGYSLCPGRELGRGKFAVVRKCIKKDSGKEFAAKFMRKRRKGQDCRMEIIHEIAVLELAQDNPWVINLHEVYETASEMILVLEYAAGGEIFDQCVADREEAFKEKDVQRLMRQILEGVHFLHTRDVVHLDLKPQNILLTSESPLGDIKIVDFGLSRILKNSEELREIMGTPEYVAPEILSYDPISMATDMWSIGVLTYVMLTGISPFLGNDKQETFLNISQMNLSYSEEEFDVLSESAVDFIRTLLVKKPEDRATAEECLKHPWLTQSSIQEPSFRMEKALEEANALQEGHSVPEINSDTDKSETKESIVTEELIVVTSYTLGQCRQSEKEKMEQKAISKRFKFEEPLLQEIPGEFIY
In short: as §1

[5] = molecular target: T5, kinases of the scanMAX Kinase assay panel (Homo sapiens, UniProt Q13554); details: CAMK2B; 1 uM
T5 construct: purchased DiscoverX Co. (contract measurement) scanMAX Kinase assay panel
In short: as §1

[6] = molecular target: T6, kinases of the scanMAX Kinase assay panel (Homo sapiens, UniProt Q04759); details: PRKCQ; 1 uM
T6 construct: purchased DiscoverX Co. (contract measurement) scanMAX Kinase assay panel
In short: as §1

[7] = molecular target: T7, kinases of the scanMAX Kinase assay panel (Homo sapiens, UniProt Q08881); details: ITK; 1 uM
T7 construct: purchased DiscoverX Co. (contract measurement) scanMAX Kinase assay panel
T7 sequence (Q08881 1-620): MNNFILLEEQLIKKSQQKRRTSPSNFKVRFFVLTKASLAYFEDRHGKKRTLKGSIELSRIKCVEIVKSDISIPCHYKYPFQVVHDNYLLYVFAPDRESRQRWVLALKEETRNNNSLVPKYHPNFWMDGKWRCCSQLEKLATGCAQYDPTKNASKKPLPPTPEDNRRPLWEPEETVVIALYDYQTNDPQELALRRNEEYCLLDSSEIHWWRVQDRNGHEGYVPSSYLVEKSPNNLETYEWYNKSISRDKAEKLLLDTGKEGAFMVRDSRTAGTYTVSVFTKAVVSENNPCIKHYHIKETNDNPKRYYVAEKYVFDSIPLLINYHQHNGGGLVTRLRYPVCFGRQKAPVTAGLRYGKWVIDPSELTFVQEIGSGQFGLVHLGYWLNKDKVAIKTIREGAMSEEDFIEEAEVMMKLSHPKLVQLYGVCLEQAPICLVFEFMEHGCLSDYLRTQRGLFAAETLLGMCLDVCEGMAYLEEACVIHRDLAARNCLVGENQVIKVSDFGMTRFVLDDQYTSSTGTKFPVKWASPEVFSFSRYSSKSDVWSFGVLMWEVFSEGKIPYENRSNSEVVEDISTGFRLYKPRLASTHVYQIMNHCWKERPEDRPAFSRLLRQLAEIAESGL
In short: as §1

[8] = molecular target: T8, kinases of the scanMAX Kinase assay panel (Homo sapiens, UniProt P08631); details: HCK; 1 uM
T8 construct: purchased DiscoverX Co. (contract measurement) scanMAX Kinase assay panel
In short: as §1

[9] = molecular target: T9, kinases of the scanMAX Kinase assay panel (Homo sapiens, UniProt Q13464); details: kinase ROCK1; 1 uM in DMSO
T9 construct: purchased DiscoverX Co. (contract measurement) scanMAX Kinase assay panel
In short: as §1

[10] = molecular target: T10, kinases of the scanMAX Kinase assay panel (Homo sapiens, UniProt Q6P2M8); details: CAMK1B; 1 uM
T10 construct: purchased DiscoverX Co. (contract measurement) scanMAX Kinase assay panel
In short: as §1

T9 sequence (Q13464 whole entry): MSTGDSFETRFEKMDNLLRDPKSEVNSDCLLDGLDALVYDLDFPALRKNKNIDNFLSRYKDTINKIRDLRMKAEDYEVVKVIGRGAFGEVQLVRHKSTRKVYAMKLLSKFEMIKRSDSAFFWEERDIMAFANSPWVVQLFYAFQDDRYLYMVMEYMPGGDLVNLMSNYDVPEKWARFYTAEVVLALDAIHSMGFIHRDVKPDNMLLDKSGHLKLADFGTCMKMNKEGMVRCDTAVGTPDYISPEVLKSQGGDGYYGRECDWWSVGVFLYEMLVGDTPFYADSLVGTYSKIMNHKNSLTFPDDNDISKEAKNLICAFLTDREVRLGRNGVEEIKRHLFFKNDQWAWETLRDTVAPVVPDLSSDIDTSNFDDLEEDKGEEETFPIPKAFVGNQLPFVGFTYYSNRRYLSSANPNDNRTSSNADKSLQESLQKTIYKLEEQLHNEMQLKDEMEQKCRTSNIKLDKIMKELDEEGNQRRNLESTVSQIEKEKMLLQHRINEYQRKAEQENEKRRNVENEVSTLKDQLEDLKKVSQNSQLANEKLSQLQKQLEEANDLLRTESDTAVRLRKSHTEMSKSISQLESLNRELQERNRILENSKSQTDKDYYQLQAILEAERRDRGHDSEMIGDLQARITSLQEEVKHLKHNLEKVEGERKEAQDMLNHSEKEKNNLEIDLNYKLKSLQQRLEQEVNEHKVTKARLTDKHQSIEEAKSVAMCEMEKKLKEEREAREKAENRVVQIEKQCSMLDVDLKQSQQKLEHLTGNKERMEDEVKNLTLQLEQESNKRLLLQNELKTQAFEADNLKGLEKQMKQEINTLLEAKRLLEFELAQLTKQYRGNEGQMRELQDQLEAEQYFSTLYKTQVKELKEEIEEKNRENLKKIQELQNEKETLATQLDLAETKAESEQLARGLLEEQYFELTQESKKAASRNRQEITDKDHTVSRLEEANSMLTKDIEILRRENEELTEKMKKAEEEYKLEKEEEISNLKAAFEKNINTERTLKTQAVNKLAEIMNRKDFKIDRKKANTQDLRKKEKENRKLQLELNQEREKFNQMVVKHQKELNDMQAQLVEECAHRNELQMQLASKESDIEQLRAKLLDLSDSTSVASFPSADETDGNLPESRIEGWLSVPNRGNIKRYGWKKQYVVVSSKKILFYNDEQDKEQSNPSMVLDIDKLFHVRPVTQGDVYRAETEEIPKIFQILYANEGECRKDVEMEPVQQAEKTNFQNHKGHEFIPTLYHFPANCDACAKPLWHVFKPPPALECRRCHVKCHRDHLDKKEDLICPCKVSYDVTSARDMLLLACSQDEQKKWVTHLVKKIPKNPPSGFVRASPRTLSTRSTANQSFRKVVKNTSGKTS
T6 sequence (Q04759 whole entry): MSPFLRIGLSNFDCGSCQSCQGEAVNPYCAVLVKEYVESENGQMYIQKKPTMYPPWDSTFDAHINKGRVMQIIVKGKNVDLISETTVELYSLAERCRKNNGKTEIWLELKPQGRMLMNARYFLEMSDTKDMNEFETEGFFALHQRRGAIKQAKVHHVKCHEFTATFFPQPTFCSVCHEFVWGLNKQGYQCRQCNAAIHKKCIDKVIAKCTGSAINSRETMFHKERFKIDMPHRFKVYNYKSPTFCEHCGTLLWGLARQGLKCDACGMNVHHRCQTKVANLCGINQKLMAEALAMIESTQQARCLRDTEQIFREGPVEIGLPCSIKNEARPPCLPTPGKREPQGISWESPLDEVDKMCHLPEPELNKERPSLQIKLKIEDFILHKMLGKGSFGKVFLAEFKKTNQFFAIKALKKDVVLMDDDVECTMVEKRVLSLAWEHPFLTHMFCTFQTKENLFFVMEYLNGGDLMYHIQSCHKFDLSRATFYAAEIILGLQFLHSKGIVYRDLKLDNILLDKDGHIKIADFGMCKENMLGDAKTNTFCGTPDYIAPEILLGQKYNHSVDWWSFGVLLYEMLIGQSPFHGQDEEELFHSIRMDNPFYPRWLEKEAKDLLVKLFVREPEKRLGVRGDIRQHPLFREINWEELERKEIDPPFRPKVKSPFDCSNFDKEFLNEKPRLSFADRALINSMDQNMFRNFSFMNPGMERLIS
T10 sequence (Q6P2M8 whole entry): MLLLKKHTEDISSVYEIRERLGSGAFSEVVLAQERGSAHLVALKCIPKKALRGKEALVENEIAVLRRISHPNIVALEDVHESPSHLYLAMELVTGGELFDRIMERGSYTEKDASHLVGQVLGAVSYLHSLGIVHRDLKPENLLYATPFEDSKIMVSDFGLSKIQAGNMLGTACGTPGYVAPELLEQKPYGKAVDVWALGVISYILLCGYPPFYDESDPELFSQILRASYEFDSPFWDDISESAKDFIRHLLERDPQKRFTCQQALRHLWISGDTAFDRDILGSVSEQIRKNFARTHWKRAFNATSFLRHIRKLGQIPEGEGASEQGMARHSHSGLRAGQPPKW
T8 sequence (P08631 whole entry): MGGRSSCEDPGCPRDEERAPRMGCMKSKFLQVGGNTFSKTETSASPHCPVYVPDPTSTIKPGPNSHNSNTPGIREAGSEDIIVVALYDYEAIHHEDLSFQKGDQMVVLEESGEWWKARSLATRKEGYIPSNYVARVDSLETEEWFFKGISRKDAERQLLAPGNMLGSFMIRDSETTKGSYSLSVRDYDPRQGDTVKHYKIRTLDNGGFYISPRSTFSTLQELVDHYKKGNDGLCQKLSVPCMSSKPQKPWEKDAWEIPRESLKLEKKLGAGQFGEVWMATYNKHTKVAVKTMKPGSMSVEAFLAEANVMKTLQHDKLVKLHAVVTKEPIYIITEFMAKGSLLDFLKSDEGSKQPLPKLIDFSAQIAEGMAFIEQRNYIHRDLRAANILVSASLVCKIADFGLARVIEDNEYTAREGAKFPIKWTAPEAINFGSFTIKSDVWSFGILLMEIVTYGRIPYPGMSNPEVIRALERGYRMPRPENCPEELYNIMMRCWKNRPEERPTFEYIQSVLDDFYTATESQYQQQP
T1 sequence (Q13523 whole entry): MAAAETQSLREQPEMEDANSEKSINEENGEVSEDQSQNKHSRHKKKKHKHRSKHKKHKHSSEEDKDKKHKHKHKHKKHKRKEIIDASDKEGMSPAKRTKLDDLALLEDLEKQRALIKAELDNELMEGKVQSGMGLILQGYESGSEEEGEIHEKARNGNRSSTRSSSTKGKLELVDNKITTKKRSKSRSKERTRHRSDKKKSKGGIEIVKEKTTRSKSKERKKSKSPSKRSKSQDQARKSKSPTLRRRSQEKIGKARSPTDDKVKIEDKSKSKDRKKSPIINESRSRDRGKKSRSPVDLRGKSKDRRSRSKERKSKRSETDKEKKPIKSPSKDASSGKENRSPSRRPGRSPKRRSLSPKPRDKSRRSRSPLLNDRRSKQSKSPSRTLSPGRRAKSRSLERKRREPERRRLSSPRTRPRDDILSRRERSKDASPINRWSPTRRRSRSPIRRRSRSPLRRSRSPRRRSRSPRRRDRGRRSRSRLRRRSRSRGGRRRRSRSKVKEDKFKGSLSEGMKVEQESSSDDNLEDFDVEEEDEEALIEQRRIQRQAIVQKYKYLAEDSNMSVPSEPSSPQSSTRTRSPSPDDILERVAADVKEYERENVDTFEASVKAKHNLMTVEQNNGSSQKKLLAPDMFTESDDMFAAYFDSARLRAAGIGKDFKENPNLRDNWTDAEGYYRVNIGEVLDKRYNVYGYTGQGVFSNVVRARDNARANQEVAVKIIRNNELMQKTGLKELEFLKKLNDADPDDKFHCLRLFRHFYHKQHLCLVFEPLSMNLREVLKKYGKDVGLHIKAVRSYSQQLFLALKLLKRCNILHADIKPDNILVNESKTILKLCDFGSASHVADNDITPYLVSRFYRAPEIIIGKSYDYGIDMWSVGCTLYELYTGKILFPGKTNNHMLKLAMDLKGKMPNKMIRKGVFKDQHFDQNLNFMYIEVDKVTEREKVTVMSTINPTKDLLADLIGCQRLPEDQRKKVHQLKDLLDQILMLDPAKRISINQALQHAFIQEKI
T2 sequence (Q96Q40 whole entry): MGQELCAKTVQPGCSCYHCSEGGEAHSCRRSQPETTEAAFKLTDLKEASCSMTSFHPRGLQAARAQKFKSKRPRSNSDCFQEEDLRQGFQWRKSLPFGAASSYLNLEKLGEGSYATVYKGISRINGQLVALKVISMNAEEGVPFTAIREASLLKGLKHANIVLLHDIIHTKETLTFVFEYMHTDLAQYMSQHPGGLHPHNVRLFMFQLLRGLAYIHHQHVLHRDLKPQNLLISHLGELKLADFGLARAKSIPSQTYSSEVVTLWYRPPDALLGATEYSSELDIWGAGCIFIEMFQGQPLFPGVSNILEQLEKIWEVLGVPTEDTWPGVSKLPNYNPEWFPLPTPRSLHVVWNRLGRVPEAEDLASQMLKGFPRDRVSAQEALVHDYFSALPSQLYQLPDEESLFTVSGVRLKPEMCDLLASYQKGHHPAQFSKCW
T5 sequence (Q13554 whole entry): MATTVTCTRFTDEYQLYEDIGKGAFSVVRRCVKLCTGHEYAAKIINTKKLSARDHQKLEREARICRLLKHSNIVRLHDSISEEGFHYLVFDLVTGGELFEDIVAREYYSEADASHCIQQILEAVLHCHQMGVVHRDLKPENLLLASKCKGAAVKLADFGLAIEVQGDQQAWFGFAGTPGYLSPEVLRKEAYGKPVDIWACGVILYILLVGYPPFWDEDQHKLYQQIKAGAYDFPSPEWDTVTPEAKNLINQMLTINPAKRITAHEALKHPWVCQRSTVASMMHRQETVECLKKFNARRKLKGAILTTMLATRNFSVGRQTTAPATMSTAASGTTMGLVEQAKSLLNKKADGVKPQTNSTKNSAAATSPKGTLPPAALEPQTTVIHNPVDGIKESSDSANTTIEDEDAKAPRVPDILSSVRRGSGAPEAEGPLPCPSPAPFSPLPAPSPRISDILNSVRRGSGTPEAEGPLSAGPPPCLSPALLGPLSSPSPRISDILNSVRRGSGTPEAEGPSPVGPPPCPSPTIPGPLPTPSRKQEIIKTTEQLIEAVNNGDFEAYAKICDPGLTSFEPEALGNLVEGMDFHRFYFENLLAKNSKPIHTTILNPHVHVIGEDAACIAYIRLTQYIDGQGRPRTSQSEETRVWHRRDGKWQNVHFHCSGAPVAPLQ

Row | SMILES | remaining binding at 1 µM [1] | remaining binding at 1 µM [2] | remaining binding at 1 µM [3] | remaining binding at 1 µM [4] | remaining binding at 1 µM [5] | remaining binding at 1 µM [6] | remaining binding at 1 µM [7] | remaining binding at 1 µM [8] | remaining binding at 1 µM [9] | remaining binding at 1 µM [10]
1 | CNc1nc(Nc2ccc(C(=O)N3CCOCC3)cc2OC)nc2[nH]cc(C#N)c12 [Example 1, 2-((2-methoxy-4-(morpholine-4-carbonyl)phenyl)amino)-4-(methylamino)-7H-pyrrolo[2,3-d]pyrimidine-5-carbonitrile] | 100% | 97% | 81% | 37% | 62% | 95% | 99% | 95% | 64% | 45%
2 | CC1(Nc2nc(Nc3cnn([C@H]4CCN(C5COC5)C[C@@H]4F)c3Cl)nc3[nH]cc(C#N)c23)CC1 [Example 52, 2-((5-chloro-1-((3S,4S)-3-fluoro-1-(oxetane-3-yl)piperidine-4-yl)-1H-pyrazole-4-yl)amino)((1-methylcyclopropyl)amino)-7H-pyrrolo[2,3-d]pyrimidine-5-carbonitrile] | 19% | 90% | 16% | 0.3% | 57% | 47% | 9.7% | 11% | 28% | 64%
3 | CCNc1nc(Nc2ccc(C(=O)N3CCC(N4CCOCC4)CC3)cc2OC)nc2[nH]cc(C(F)(F)F)c12 [Example 104, (4-((4-(ethylamino)-5-(trifluoromethyl)-7H-pyrrolo[2,3-d]pyrimidine-2-yl)amino)-3-methoxyphenyl)(4-morpholinopiperidine-1-yl)methanone] | 89% | 99% | 100% | 49% | 81% | 100% | 100% | 100% | 100% | 21%
